Where a name gives a salt, the structure may show the parent alone. Read-outs that look alike come from different tables or passages of the source.
Legend:
[1] = target: His-GST-TVMV-hRIPK1(1-324) (Homo sapiens (Human), UniProt Q13546); assay: RIPK1 HTRF Binding Assay; details: HTRF binding, 1 h at rt; read-out: RIPK1 (IC50)
Procedure, shortened: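 HTRF probe-displacement binding: 1 nM His-GST-TVMV-hRIPK1(1-324) (baculovirus construct), 90.6 nM probe, 0.2 nM anti-GST-Tb in 20 mM HEPES, 10 mM MgCl2, 0.015% Brij-35, 4 mM DTT, 0.05 mg/mL BSA. Incubated 1 h at rt; FRET 520/495 nm ratio, inhibition relative to DMSO-only wells.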

[2] = system: MLKL phosphorylation in HT29-L23 human colorectal adenocarcinoma cells; assay: MLKL Phosphorylation High-Content Assay; format: cell-based; details: necroptosis induced with TNFα, SMAC mimetic and Z-VAD, 6 h, read-out: pMLKL (IC50)
Procedure, shortened: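 HT29-L23 cells pretreated 30 min at 37 °C with compound (6.25 to 0.106 μM final), then necroptosis induced with TNFα 35 ng/mL, SMAC mimetic 700 nM and Z-VAD 140 nM for 6 h. Fixed cells immunostained for MLKL pS358 and imaged; IC50 and Ymax from 4-parameter logistic fit.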

Sequence of His-GST-TVMV-hRIPK1(1-324) (Q13546 1-324): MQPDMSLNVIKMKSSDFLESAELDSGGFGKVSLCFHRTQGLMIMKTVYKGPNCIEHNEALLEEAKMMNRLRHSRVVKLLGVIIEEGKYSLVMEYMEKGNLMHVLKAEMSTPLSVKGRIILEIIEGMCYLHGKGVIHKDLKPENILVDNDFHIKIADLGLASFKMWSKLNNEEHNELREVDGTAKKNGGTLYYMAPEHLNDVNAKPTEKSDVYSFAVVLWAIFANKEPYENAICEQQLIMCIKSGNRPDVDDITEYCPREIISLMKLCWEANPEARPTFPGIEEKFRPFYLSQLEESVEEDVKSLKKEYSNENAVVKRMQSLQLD

| Structure (SMILES) | IC50 [1] | IC50 [2] | IC50 ([2]; Homo sapiens) |
| --- | --- | --- | --- |
| CC(=O)Nc1cn2nc(-c3cnc(C)c(C(=O)NC(C)c4cc(C(F)(F)F)ccc4F)c3)ccc2n1 (stereo not shown) [Example 205, 5-{2-acetamidoimidazo[1,2-b]pyridazin-6-yl}-N-{1-[2-fluoro-5-(trifluoromethyl)phenyl]ethyl}-2-methylpyridine-3-carboxamide] | 27 nM | 74 nM | – |
| CC(=O)Nc1cn2nc(-c3cnc(C)c(C(=O)NCc4cc(C(F)(F)F)ccc4F)c3)ccc2n1 [Example 206, 5-{2-acetamidoimidazo[1,2-b]pyridazin-6-yl}-N-{[2-fluoro-5-(trifluoromethyl)phenyl]methyl}-2-methylpyridine-3-carboxamide, TFA] | 12 nM | – | 37 nM |
| CC(=O)Nc1cn2nc(-c3cnc(C)c(C(=O)NCc4cc(F)cc(OC(F)(F)F)c4)c3)ccc2n1 [Example 207, 5-{2-acetamidoimidazo[1,2-b]pyridazin-6-yl}-N-{[3-fluoro-5-(trifluoromethoxy)phenyl]methyl}-2-methylpyridine-3-carboxamide, TFA] | 29 nM | – | 92 nM |
| [2H]C([2H])(NC(=O)c1cc(-c2ccc3nc(NC(C)=O)cn3n2)cnc1C)c1cc(OC(F)(F)F)ccc1F [Example 208, 5-{2-acetamidoimidazo[1,2-b]pyridazin-6-yl}-N-{[2-fluoro-5-(trifluoromethoxy)phenyl] (deutero)methyl}-2-methylpyridine-3-carboxamide] | 5 nM | – | 5 nM |
| CC(=O)Nc1cn2nc(-c3cnc(C)c(C(=O)NCc4ccc(F)c(F)c4OCC4CC4)c3)ccc2n1 [Example 209, N-{[2-(cyclopropylmethoxy)-3,4-difluorophenyl]methyl}-5-{2-acetamidoimidazo [1,2-b]pyridazin-6-yl}-2-methylpyridine-3-carboxamide] | 133 nM | – | 202 nM |
| CC(=O)Nc1cn2nc(-c3cnc(C)c(C(=O)NCc4cc(F)cc(F)c4OCC4CCC4)c3)ccc2n1 [Example 210, N-{[2-(cyclobutylmethoxy)-3,5-difluorophenyl]methyl}-5-{2-acetamidoimidazo[1,2-b]pyridazin-6-yl}-2-methylpyridine-3-carboxamide, TFA] | 3 nM | 5 nM | – |
| CC(=O)Nc1cn2nc(-c3cnc(C)c(C(=O)NCC[C@@H](O)c4ccc(Cl)cc4)c3)ccc2n1 [Example 211, N-[(3R)-3-(4-chlorophenyl)-3-hydroxypropyl]-5-{2-acetamidoimidazo[1,2-b]pyridazin-6-yl}-2-methylpyridine-3-carboxamide] | 62 nM | – | 137 nM |
| CC(=O)Nc1cn2nc(-c3cnc(C)c(C(=O)NCc4cccc(F)c4OCC4CC4)c3)ccc2n1 [Example 212, N-{[2-(cyclopropylmethoxy)-3-fluorophenyl]methyl}-5-{2-acetamidoimidazo [1,2-b]pyridazin-6-yl}-2-methylpyridine-3-carboxamide] | 8 nM | – | 4 nM |
| CC(=O)Nc1cn2nc(-c3cnc(C)c(C(=O)NCc4cc(OC(F)(F)F)ccc4F)c3)ccc2n1 [Example 213, 5-{2-acetamidoimidazo[1,2-b]pyridazin-6-yl}-N-{[2-fluoro-5-(trifluoromethoxy)phenyl]methyl}-2-methylpyridine-3-carboxamide] | 7 nM | – | 6 nM |
| CC(=O)Nc1cn2nc(-c3cnc(C)c(C(=O)NCc4cc(F)cc(F)c4OCC4CC4)c3)ccc2n1 [Example 214, N-{[2-(cyclopropylmethoxy)-3,5-difluorophenyl]methyl}-5-{2-acetamidoimidazo[1,2-b]pyridazin-6-yl}-2-methylpyridine-3-carboxamide] | 1 nM | – | 16 nM |
| CC(=O)Nc1cn2nc(-c3cnc(C)c(C(=O)NCc4cc(OCC5CC5)ccc4F)c3)ccc2n1 [Example 215, N-{[5-(cyclopropylmethoxy)-2-fluorophenyl]methyl}-5-{2-acetamidoimidazo[1,2-b]pyridazin-6-yl}-2-methylpyridine-3-carboxamide] | 8 nM | – | 22 nM |
| CC(=O)Nc1cn2nc(-c3cnc(C)c(C(=O)NCC[C@H](O)c4ccc(Cl)cc4)c3)ccc2n1 [Example 216, N-[(3S)-3-(4-chlorophenyl)-3-hydroxypropyl]-5-{2-acetamidoimidazo[1,2-b]pyridazin-6-yl}-2-methylpyridine-3-carboxamide] | 66 nM | – | 397 nM |
| CC(=O)Nc1cn2nc(-c3cnc(C)c(C(=O)NCc4cccnc4OCC4CCCC4)c3)ccc2n1 [Example 217, N-{[2-(cyclopentylmethoxy)pyridin-3-yl]methyl}-5-{2-acetamidoimidazo [1,2-b]pyridazin-6-yl}-2-methylpyridine-3-carboxamide] | 54 nM | – | 205 nM |
| CC(=O)Nc1cn2nc(-c3cnc(C)c(C(=O)NCc4cc(F)ccc4OCC4CCCC4)c3)ccc2n1 [Example 218, N-{[2-(cyclopentylmethoxy)-5-fluorophenyl]methyl}-5-{2-acetamidoimidazo[1,2-b]pyridazin-6-yl}-2-methylpyridine-3-carboxamide] | 6 nM | – | 15 nM |
| CC(=O)Nc1cn2nc(-c3cnc(C)c(C(=O)NCc4c(F)cccc4OCC4CCC4)c3)ccc2n1 [Example 219, N-{[2-(cyclobutylmethoxy)-6-fluorophenyl]methyl}-5-{2-acetamidoimidazo[1,2-b]pyridazin-6-yl}-2-methylpyridine-3-carboxamide] | 3 nM | – | 1 nM |
| CC(=O)Nc1cn2nc(-c3cnc(C)c(C(=O)NCc4ccccc4OC(F)(F)F)c3)ccc2n1 [Example 220, 5-{2-acetamidoimidazo[1,2-b]pyridazin-6-yl}-2-methyl-N-{[2-(trifluoromethoxy)phenyl]methyl}pyridine-3-carboxamide] | 202 nM | – | 406 nM |
| CC(=O)Nc1cn2nc(-c3cnc(C)c(C(=O)NCc4cccc(OC(F)(F)F)c4)c3)ccc2n1 [Example 221, 5-{2-acetamidoimidazo[1,2-b]pyridazin-6-yl}-2-methyl-N-{[3-(trifluoromethoxy)phenyl]methyl}pyridine-3-carboxamide, TFA] | 49 nM | – | 52 nM |
| CC(=O)Nc1cn2nc(-c3cnc(C)c(C(=O)NCc4cc(F)ccc4OC4CCCC4)c3)ccc2n1 [Example 222, N-{[2-(cyclopentyloxy)-5-fluorophenyl]methyl}-5-{2-acetamidoimidazo[1,2-b]pyridazin-6-yl}-2-methylpyridine-3-carboxamide] | 3 nM | – | 2 nM |
| CC(=O)Nc1cn2nc(-c3cnc(C)c(C(=O)NCc4c(F)cccc4OC4CCCC4)c3)ccc2n1 [Example 223, N-{[2-(cyclopentyloxy)-6-fluorophenyl]methyl}-5-{2-acetamidoimidazo[1,2-b]pyridazin-6-yl}-2-methylpyridine-3-carboxamide] | 4 nM | – | 3 nM |
| CC(=O)Nc1cn2nc(-c3cnc(C)c(C(=O)NCc4ccccc4OC4CCOC4)c3)ccc2n1 (stereo not shown) [Example 224, 5-{2-acetamidoimidazo[1,2-b]pyridazin-6-yl}-2-methyl-N-{[2-(oxolan-3-yloxy)phenyl]methyl}pyridine-3-carboxamide] | 157 nM | – | 334 nM |
| CC(=O)Nc1cn2nc(-c3cnc(C)c(C(=O)NCc4ccccc4OC4CCCC4)c3)ccc2n1 [Example 225, N-{[2-(cyclopentyloxy)phenyl]methyl}-5-{2-acetamidoimidazo[1,2-b]pyridazin-6-yl}-2-methylpyridine-3-carboxamide] | 5 nM | – | 3 nM |
| CC(=O)Nc1cn2nc(-c3cnc(C)c(C(=O)NCc4c(F)cccc4OCC4CC4)c3)ccc2n1 [Example 226, N-{[2-(cyclopropylmethoxy)-6-fluorophenyl]methyl}-5-{2-acetamidoimidazo[1,2-b]pyridazin-6-yl}-2-methylpyridine-3-carboxamide] | 6 nM | – | 3 nM |
| CC(=O)Nc1cn2nc(-c3cnc(C)c(C(=O)NCc4ccccc4OCC4CC4)c3)ccc2n1 [Example 227, N-{[2-(cyclopropylmethoxy)phenyl]methyl}-5-{2-acetamidoimidazo [1,2-b]pyridazin-6-yl}-2-methylpyridine-3-carboxamide] | 8 nM | – | 21 nM |
| CC(=O)Nc1cn2nc(-c3cc(C(=O)N[C@@H](C)c4cc(OC(F)(F)F)ccc4F)cnc3C)ccc2n1 [Example 228, 5-{2-acetamidoimidazo[1,2-b]pyridazin-6-yl}-N-[(1S)-1-[2-fluoro-5-(trifluoromethoxy)phenyl]ethyl]-6-methylpyridine-3-carboxamide] | 16 nM | – | 193 nM |
| [2H]C([2H])([2H])[C@@H](NC(=O)c1cnc(C)c(-c2ccc3nc(NC(C)=O)cn3n2)c1)c1cc(OC(F)(F)F)ccc1F [Example 229, 5-{2-acetamidoimidazo[1,2-b]pyridazin-6-yl}-N-[(1R)-1-[2-fluoro-5-(trifluoromethoxy)phenyl] (2,2,2-deutero)ethyl]-6-methylpyridine-3-carboxamide] | 134 nM | – | 436 nM |
| [2H]C([2H])(NC(=O)c1cnc(C)c(-c2ccc3nc(NC(C)=O)cn3n2)c1)c1cc(OC(F)(F)F)ccc1F [Example 230, 5-{2-acetamidoimidazo[1,2-b]pyridazin-6-yl}-N-{[2-fluoro-5-(trifluoromethoxy)phenyl](deutero)methy 1}-6-methylpyridine-3-carboxamide] | 19 nM | – | 90 nM |
